Experiments:
[1] = molecular target: T1, CaMKII (Rattus norvegicus, UniProt P11275); assay: Reconstituted enzyme assay, CaMKII; format: biochemical; details: γ-[32P]-ATP, synthetic peptide substrate; mean ± SEM; read-out: IC50 CaMKII
T1 construct: purchased New England Biolabs
Experimental: (§1) [table] […] The rationale for using BV-2 cells in high throughput screening was the paucity of well-characterized human microglial cell lines, and the relevant activation responses and signaling pathways reflect those seen in human and rodent primary microglial cultures. Compounds were tested for their effects on NO accumulation in conditioned media of LPS-stimulated BV-2 cells by measurement of nitrite production by the Griess assay as a read-out for iNOS activity, as described previously. Stock solutions of compounds were prepared in dimethylsulfoxide (DMSO) or in water. When stock solutions were prepared in DMSO, control wells contained the same final concentration of DMSO as the compound-containing wells. […] Solutions of compounds for cell treatments were diluted to a 10× final concentration by dilution of stock solutions in αMEM media. […] Reconstituted enzyme assays were done as described s. The sources of protein kinases were: bovine heart PKA from Promega, rat brain PKC from Calbiochem, rat CaMKII from New England Biolabs, chicken gizzard MLCK prepared as described, and a p38 MAP kinase kit containing recombinant Xenopus p38-MAPK and its human substrate from Upstate Biotechnology. The catalytic domains of these protein kinases retain a high level of amino acid sequence identity across mammalian species, consistent with the lack of documented major differences across species for the in vitro catalytic activity of a given kinase.

[2] = molecular target: T2, protein kinase A (PKA) (Bos taurus, UniProt P00517); assay: Reconstituted enzyme assay, PKA; format: biochemical, bovine; details: γ-[32P]-ATP, synthetic peptide substrate
T2 construct: bovine heart PKA from Promega; purchased Promega; host or cells: bovine heart
Experimental: as §1, with “The catalytic domains of these protein kinases retain a high level of amino acid sequence identity across mammalian species, consistent with the lack of documented major differences across species for the in vitro catalytic activity of a given kinase.” left out

[3] = molecular target: death associated protein kinase (DAPK) (Homo sapiens, UniProt P53355); assay: Enzyme assay, DAPK; format: biochemical; details: read-out: DAPK IC50
Experimental: Therefore, compound MW01-026Z was selected as a starting point for variations on component A (Table 6). […] However, none of the A variations appeared to improve the activity and selectivity profile of CompoundMW01-026Z. (For purposes of illustration, only, component G was maintained throughout as an acyl moiety, while component R2 was varied as shown. All such compositions are available using the synthetic techniques described herein. Enzyme assays were conducted per procedures described elsewhere herein.) A more comprehensive structure activity relationship is summarized in Table 7, below.
With reference to the compositions of Table 3 and the enzyme assay techniques described elsewhere herein, Table 7 provides structural activity relationships observed, in accordance with this invention.

[4] = molecular target: protein kinase C (PKC); assay: Reconstituted enzyme assay, PKC; format: biochemical, rat; details: γ-[32P]-ATP, synthetic peptide substrate; read-out: IC50 PKC
Experimental: as §1

[5] = molecular target: T3, p38 MAPK (Xenopus laevis, UniProt P47812); assay: Reconstituted enzyme assay, p38 MAPK; format: biochemical; details: γ-[32P]-ATP, synthetic peptide substrate
T3 construct: purchased Upstate Biotechnology
Experimental: as §1, with “The catalytic domains of these protein kinases retain a high level of amino acid sequence identity across mammalian species, consistent with the lack of documented major differences across species for the in vitro catalytic activity of a given kinase.” left out

[6] = test system: BV-2 cells; assay: Western blot of transcription factor and kinase phosphorylation in LPS-treated BV-2 cells; format: cell-based, murine; details: compound 10 μM
Experimental: FIG. 2. Selective effects of compound 1 (MW01-070C) on glial activation responses and gene-regulating protein kinase pathways. BV-2 cells and rat astrocytes were treated with control buffer (C) or stimulated with LPS or Aβ1-42 peptide in the presence or absence of compound 1, and cell lysates were analyzed by Western blots. (A) Astrocytes treated with LPS and compound 1 show concentration-dependent inhibition of iNOS and IL-1β production but not GFAP. (B) Astrocytes treated with A β1-42 and compound 1 (10 μM) show inhibition of iNOS and IL-1β but not apoE and COX-2. (C) BV-2 cells treated with LPS and compound 1 (10 μM) show inhibition of phosphorylated (p-) CREB but not p-p38 and p-ATF2, as assayed with antibodies that are specific for the phosphorylated forms of the proteins. Data are expressed as percent control (mean±SD; n=3 determinations).
FIG. 7. Effects of MW01-070C on phosphorylation of transcription factors and an upstream activating kinase. BV-2 cells were incubated for 4 hr with control buffer (lane 1), 500 ng/ml LPS (lane 2), or […] LPS+10 μM MW01-070C (lane 3). The levels of phosphorylated (p-) ATF2, p38, and CREB were determined by Western blot of cell lysates, using antibodies that are specific for the phosphorylated forms of these proteins.
For analysis of transcription factor phosphorylation, BV-2 cells were plated at 2×10^5 cells/well in a 12-well tissue culture plate, and grown for 48 hrs in αMEM containing 10% FBS. Immediately before treatment, media was removed, cells were rinsed with PBS, and media changed to serum-free αMEM. Cells were then treated for 4 hrs with control buffer or LPS (500 ng/ml) in the presence or absence of MW01-070C (10 μM), and cell lysates harvested for Western blot analysis.
Cell lysates were prepared and Western blots were done as previously described [Petrova, T. V., Akama, K. T., and Van Eldik, L. J. (1999) Proc Natl Acad Sci USA 96, 4668-4673] using equal volumes of cell extracts per gel lane. The following antibodies were used: monoclonal anti-iNOS (1:1000 dilution, Transduction Labs); polyclonal anti-rat IL-1β (1:1000 dilution, R&D Systems, Inc.); monoclonal anti-glial fibrillary acidic protein (GFAP) (1:[…] dilution, Sigma); polyclonal anti-rat apoE (1:15,000 dilution) prepared as described [LaDu, M. J., Shah, J. A., Reardon, K., Getz, G. S., Bu, G., Hu, J., Guo, L., and Van Eldik, L. J. (2000) J. Biol. Chem. 275, 33974-33980]; polyclonal anti-COX-2 (1:500 dilution) and monoclonal anti-phosphoATF2 (1:1000 dilution) from Santa Cruz Biotechnology; polyclonal anti-phosphoCREB (1:1000 dilution), polyclonal anti-phosphop38 MAPK (1:1000 dilution), polyclonal anti-phosphop90RSK (1:1000 dilution), and monoclonal anti-phosphoERK1/2 (1:1000 dilution) from Cell Signaling.

T1 sequence (P11275 1-325 limits assumed): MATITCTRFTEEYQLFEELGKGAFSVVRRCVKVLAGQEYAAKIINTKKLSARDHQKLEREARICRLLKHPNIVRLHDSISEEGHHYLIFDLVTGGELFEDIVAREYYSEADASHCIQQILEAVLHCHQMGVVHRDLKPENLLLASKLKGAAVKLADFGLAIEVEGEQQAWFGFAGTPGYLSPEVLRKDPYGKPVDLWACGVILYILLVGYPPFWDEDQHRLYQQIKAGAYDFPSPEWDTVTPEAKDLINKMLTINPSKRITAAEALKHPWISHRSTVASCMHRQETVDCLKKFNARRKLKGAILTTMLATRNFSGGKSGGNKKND
death associated protein kinase (DAPK), sequence (P53355 whole entry, species assumed): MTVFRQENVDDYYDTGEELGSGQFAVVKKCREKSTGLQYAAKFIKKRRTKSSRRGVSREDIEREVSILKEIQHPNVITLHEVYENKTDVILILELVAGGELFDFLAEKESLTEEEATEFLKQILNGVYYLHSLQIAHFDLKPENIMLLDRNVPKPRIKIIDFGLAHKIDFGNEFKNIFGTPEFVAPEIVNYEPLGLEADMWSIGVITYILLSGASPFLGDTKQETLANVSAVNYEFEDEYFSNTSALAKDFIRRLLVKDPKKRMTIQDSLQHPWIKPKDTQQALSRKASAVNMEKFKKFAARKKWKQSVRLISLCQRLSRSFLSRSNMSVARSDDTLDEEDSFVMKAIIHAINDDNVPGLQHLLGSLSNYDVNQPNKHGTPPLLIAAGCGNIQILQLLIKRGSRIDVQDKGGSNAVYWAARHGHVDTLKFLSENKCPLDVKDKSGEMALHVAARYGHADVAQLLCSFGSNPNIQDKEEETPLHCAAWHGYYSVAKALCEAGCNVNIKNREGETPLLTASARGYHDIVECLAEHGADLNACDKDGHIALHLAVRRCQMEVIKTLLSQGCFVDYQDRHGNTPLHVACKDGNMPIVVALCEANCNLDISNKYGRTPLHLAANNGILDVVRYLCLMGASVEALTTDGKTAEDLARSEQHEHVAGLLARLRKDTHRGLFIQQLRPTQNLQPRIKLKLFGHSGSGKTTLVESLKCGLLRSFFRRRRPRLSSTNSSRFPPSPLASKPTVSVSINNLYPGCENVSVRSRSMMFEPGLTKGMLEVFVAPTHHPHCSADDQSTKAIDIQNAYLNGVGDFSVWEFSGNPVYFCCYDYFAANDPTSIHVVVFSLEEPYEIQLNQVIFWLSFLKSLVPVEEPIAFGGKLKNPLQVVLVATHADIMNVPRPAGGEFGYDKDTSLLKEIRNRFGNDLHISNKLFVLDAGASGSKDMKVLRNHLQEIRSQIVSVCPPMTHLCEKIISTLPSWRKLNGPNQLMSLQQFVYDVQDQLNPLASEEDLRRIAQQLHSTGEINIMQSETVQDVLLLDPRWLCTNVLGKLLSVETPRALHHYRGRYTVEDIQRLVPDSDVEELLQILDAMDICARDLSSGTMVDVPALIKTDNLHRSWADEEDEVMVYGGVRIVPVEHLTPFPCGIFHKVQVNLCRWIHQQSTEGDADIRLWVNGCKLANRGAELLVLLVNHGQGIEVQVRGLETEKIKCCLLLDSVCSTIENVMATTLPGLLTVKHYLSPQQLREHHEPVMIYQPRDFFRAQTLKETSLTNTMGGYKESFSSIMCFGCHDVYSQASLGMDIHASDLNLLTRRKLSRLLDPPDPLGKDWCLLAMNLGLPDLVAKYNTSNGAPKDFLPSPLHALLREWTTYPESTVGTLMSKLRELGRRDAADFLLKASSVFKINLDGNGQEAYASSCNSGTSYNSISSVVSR
T3 sequence (P47812 whole entry): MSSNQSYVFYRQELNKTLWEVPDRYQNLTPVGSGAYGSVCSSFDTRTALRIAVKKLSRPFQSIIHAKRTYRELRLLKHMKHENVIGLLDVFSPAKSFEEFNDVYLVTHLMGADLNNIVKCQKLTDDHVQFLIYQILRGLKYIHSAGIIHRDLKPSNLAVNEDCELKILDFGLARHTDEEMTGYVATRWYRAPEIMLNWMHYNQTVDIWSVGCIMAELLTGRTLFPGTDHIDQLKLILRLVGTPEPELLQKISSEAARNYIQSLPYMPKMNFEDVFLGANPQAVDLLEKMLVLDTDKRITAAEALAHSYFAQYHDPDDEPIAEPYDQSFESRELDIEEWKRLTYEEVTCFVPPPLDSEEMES

N=c1cc2c(nn1CCCCCCCCCCC(=O)N1CCN(c3ncccn3)CC1)-c1ccccc1CC2 [MW01-070C]
IC50 [1]: 9.7 ± 1.9 µM
IC50 [2]: > 100 µM
IC50 [3]: 80 to 100 µM
IC50 [4]: > 100 µM
IC50 [5]: > 100 µM
phosphorylated ATF2 [6]: does not inhibit
phosphorylated p38 MAPK [6]: not blocked
phosphorylation of CREB [6]: inhibited
phosphorylated p38 MAPK ([6]; listed as 1): does not inhibit
phosphorylation of CREB ([6]; listed as 1): inhibits
